# Source: US11612586B2, “Indole regulation of antigen presenting cells” (THE TEXAS A&M UNIVERSITY SYSTEM, priority 2016, dated 2023)
# Assays:
# Akt = experiment: phospho-Akt in BMDCs, flow cytometry; format: cell-based, mouse
# Protocol: Flow cytometric analysis was performed on BMDCs conditioned with indole from day 3 of culture and subsequently stimulated with LPS (5 ug/ml) for the given times. Cells were stained for phospho-Akt and analyzed by flow cytometry.
# Flow cytometric analysis was performed on BMDCs from WT or AhrKO mice cultured in the presence of indole (1 mM) from day 3. DCs were stimulated with LPS (5 ug/ml) for the given times and stained for phospho-Akt, which was detected by flow cytometry. Percentage of pAkt-positive DCs indicated. Representative data is from one of three independent experiments.
# Another central mediator of cellular signaling is the serine/threonine kinase, Akt (also referred to as protein kinase B), which regulates cellular processes including metabolism, growth, proliferation, and survival. The Akt pathway is activated by numerous receptor tyrosine kinases, cytokine receptors, G-protein-coupled receptors, and other molecules which activate the lipid kinase PI3K and result in production of phosphatidylinositol (3,4,5)-trisphosphate (PIPS). This second messenger acts as a docking site at the plasma membrane for Akt where phosphorylation and activation occurs. Akt is located upstream of NF-kB and can induce NF-kB signaling via phosphorylation of IKKα and Tp12. The effect of indole on Akt phosphorylation was assessed to determine whether indole's inhibition of NF-kB might be a secondary effect due to modulation of an upstream target.
# The inventors performed a series of assays where bone marrow derived macrophages (BMDMs), bone marrow derived dendritic cells (BMDCs), and splenic dendritic cells (splenic DCs), were exposed to a series of TDMMs, including indole, indole-3-acetate (I3AT), 5-hydroxyindole (5HI), and indole-3-pyruvate (I3P), as well as indole-3-carbinol (I3C; a plant derived compound) to be used for a positive control (1 mM for 24 hours). The BMDMs and BMDCs were stimulated with LPS for 4 hours and assayed at day 7 for expression of various pro-inflammatory cytokines. In a similar assay, the BMDMs and BMDCs were stimulated with LPS or CpG, respectively, for 15 minutes and assayed for pAKT and pERK signaling, which is a reflection of pro-inflammatory response.
# naïve CD4+CD25− T cells = experiment: DC-T cell co-culture, monoclonal (OT-II, OVA323-339) stimulation: Foxp3+ Treg induction; format: cell-based, mouse
# Protocol: FIG. 16 graphically illustrates that indole-conditioned DCs preferentially induce Foxp3+ Tregs (monoclonal stimulation). Naïve CD4+CD25− T cells from OT-II TCR transgenic mice were isolated and labeled with cell proliferation dye. Naïve T cells were then co-cultured with OVA323-339 peptide-loaded BMDCs for 72 hours in the presence of TGF-β as indicated. BMDCs were previously treated with indole, RA, or DMF from day 3. Following 3 days of co-culture, surface and intracellular staining was performed for flow cytometric analysis. The mean percentage of Foxp3-positive […] from four independent experiments is shown. * indicates p<0.05 for one-way ANOVA followed by Dunnett's post-test.
# FIGS. 20A and 20B graphically illustrate that T cell skewing mediated by indole-conditioned DCs is AhR-independent. BMDCs were differentiated from WT or AhR-KO mice and conditioned with indole, RA, or DMF from day 3. DCs were then loaded with OVA323-339 and co-cultured with naïve CD4+CD25− T cells from OT-II transgenic mice for 72 hours. For Th1 cultures, T cells were restimulated with PMA and ionomycin in the presence of golgiplug for the last 5 hours of culture. Subsequently, all cultures were stained and analyzed by flow cytometry for Foxp3 to identify Tregs or (B) IFNγ to identify Th1 cells.
# To investigate whether indole-conditioned DCs preferentially induce Tregs, a co-culture system using FACS-sorted wild-type naïve CD4+CD25− T cells was employed. These naïve T cells were activated by antibodies against CD3 and CD28 in the presence of indole-conditioned BMDCs and cultured for 72 hours. Under this platform for polyclonal stimulation, a 2-fold increase in Treg induction in indole-DC cultures compared to controls was observed (FIG. 15). Additionally, the inventors pursued the same question in a more physiologically relevant model; i.e., under monoclonal T cell stimulation. […]
# Salmonella Typhimurium = experiment: Colonization of mice by Salmonella exposed to indole; format: in vivo; details: Salmonella exposed to indole compared to solvent-treated controls
# TNF = TNF production in splenic macrophages ex vivo; format: cell-based, mouse; details: indole overnight
# Protocol: Similarly, the ex vivo indole conditioning of splenocytes was repeated with tissues from AhR-deficient and wild-type mice and analyzed TNF production. […] Importantly, in this set of experiments splenocytes were stimulated with LPS, heat-killed S. typhimurium, and CpG. […] Specifically, BMDMs were generated from WT or AhR-KO mice and treated with indole (1 mM) or DMF control for 18 hours. BMDMs were then stimulated with IL-6 (10 ng/ml) for the given times and stained for phospho-Stat3, which was detected by flow cytometry.
smiles,measurement,setting,value
"c1ccc2[nH]ccc2c1 [Indole, indole]",pAKT,"Akt; BMDCs, 1 mM TDMM 24 hours, CpG (5 uM) 15 minutes",↓↓
same,reduction of phospho-Akt,"Akt; BMDCs, 1 mM indole, 30 minutes post-LPS stimulation",over 50%
same,phospho-Akt in the absence of external stimulation,"Akt; BMDCs, indole versus controls, unstimulated",No difference
same,"inhibition of Akt phospho-signaling, WT versus AhR−/−",Akt; indole-DCs generated from WT or AhR−/− bone marrow,nearly equivalent inhibition
same,Treg induction above solvent controls,"naïve CD4+CD25− T cells; BMDCs conditioned with indole, exogenous TGF-β absent or 2 ng/ml",Significance was not reached
same,Treg induction above solvent controls,"naïve CD4+CD25− T cells; OT-II T cells with OVA-loaded BMDCs conditioned with indole, TGF-β at 10 and 30 ng/ml",3.5 fold
same,AhR dependence of Treg skewing,naïve CD4+CD25− T cells; indole-conditioned BMDCs from wild-type or AhR−/− mice,entirely independent of AhR
same,competitiveness of Salmonella in colonizing mice,Salmonella Typhimurium,less competitive
same,inhibition of TNF production,"TNF; splenic macrophages from WT or AhR-KO mice, LPS, HK-STM or CpG 6 hours",marked inhibition
same,inhibition of TNF production compared to solvent controls,"TNF; splenic macrophages, LPS or heat-killed S. typhimurium",75%
